{"source": "patent US20190246647A1", "about": "“COMPOSITIONS AND RELATED METHODS FOR MODULATING ENDOSYMBIONTS” (Flagship Pioneering Innovations V, Inc., priority 2017, published 2019)", "key": {"Myzus persicae [1]": {"system": "Myzus persicae", "test": "Cy3-PNA in artificial diet: aphid survival", "format": "in vivo", "settings": "0.5 to 10 mg/L in artificial diet; paper example", "method": "Cy3-PNA solutions are formulated with 0, 0.5, 1, 5 or 10 mg/L of Cy3-PNA from Example 11 in 10 mL of 0.5% sucrose and essential amino acids.\n(§1) To prepare for the treatment, aphids are grown in a lab environment and medium. In a climate-controlled room (16 h light photoperiod; 60±5% RH; 20±2° C.), plants are grown in a mixture of vermiculite and perlite and are infested with aphids. To limit maternal effects or health differences between plants, 5-10 adults from different plants are distributed among 10 two-week-old plants, and allowed to multiply to high density for 5-7 days. For experiments, second and third instar aphids are collected from healthy plants and divided into treatments so that each treatment receives approximately the same number of individuals from each of the collection plants.\nWells of a 96-well plate are filled with 200 μl of artificial aphid diet (Febvay et al., Canadian Journal of Zoology 66(11):2449-2453, 1988) and the plate is covered with parafilm to make a feeding sachet. Artificial diet is either mixed with the solution of sterile water with 0.5% sucrose and essential amino acids only as a negative control, or mixed with Cy3-PNA solutions. Cy3-PNA solutions are mixed with artificial diet to obtain final concentrations between 0.5 to 10 mg/L. […]"}, "Aphids LSR-1, A. pisum": {"system": "Aphids LSR-1, A. pisum", "test": "BCR-4 PNA microinjection: aphid survival and fecundity", "format": "in vivo, Acyrthosiphon pisum", "method": "(§2) Microinjection was performed using NanoJet III Auto-Nanoliter Injector with an in-house pulled borosilicate needle (Drummond Scientific; Cat#3-000-203-G/XL). Aphids were transferred using a paint brush to a tubing system connected to vacuum which held them in place during the injection. The injection site was at the ventral thorax of the aphid. The injection solutions were water (negative control) or 321 ng/μl of BCR-4 PNA in water. The injection volume was 20 nl for adult (4th and 5th instar) aphids at a rate of 2 nl/sec. Each treatment group had approximately the same number of individuals injected from each of the collection plants. After injection, aphids were released into a petri dish onto fava bean leaves that had stems in an Eppendorf tube filled with 1 ml water. Survival and fecundity were monitored over the course of the experiment.\nAphids LSR-1 (which harbor only Buchnera), A. pisum were grown on fava bean plants (Vroma vicia faba from Johnny's Selected Seeds) in a climate-controlled incubator (16 h light/8 h dark photoperiod; 60±5% RH; 25±2° C.). Prior to being used for aphid rearing, fava bean plants were grown in potting soil at 24° C. with 16 h of light and 8 h of darkness. To limit maternal effects or health differences between plants, 5-10 adults from different plants were distributed among 10 two-week-old plants, and allowed to multiply to high density for 5-7 days. For experiments, fourth and fifth instar aphids were collected from healthy plants and divided into two treatment groups: 1) water (negative control) or 2) BCR-4 PNA in water."}, "[2]": {"system": "Aphids (LSR-1 strain, Acyrthosiphon pisum)", "test": "BCR-4 PNA leaf perfusion: aphid survival and development", "format": "in vivo", "settings": "for effect on aphid development / effect on aphid mortality: leaf perfusion, vs water", "method": "Aphids (LSR-1 strain, Acyrthosiphon pisum) were grown on fava bean plants (Vroma vicia faba from Johnny's Selected Seeds) in a climate-controlled incubator (16 h light/8 h dark photoperiod; 60±5% RH; 25±2° C.). Prior to being used for aphid rearing, fava bean plants were grown in potting soil at 24° C. with 16 h of light and 8 h of darkness. To limit maternal effects or health differences between plants, 5-10 adults from different plants were distributed among 10 two-week-old plants and allowed to multiply to high density for 5-7 days. For experiments, first and second instar aphids were collected from healthy plants and divided into two different treatment groups: 1) those allowed to feed on leaves perfused with water, and, 2) those allowed to feed on leaves perfused with a BCR-4 PNA solution in water.\nFor each leaf perfusion, approximately 1 ml of water (negative control) or a 1 uM BCR-4 PNA solution was injected into a fava bean leaf. The stem of the leaf was then placed in a 1.5 ml Eppendorf that was sealed with parafilm. The leaf stem was then placed into a deep petri dish (Fisher Scientific, Cat# FB0875711) and aphids were applied to the leaves of the plant and allowed to feed. Old leaves were replaced with new, freshly injected leaves every 2-3 days throughout the experiment. For each treatment, 60 aphids were placed onto each leaf. Aphids were monitored daily for survival and dead aphids were removed when they were discovered. In addition, the developmental stage (1st, 2nd, 3rd, 4th, and 5th instar) was determined daily throughout the experiment."}, "BCR-4 [3]": {"system": "BCR-4", "test": "BCR-4 PNA leaf perfusion: BCR-4 expression by RT-qPCR", "format": "in vivo, Acyrthosiphon pisum", "settings": "for effect on BCR-4 expression: day 7, vs water", "method": "After 7 days of treatment, RNA was extracted from the remaining aphids in each treatment group. Briefly, the aphid body surface was sterilized by dipping the aphid into a 6% bleach solution for approximately 5 seconds. Aphids were then rinsed in sterile water and total RNA was extracted from each individual aphid using the RNA extraction kit (Qiagen miRNeasy kit) according to manufacturer's instructions. RNA concentrations were measured using a nanodrop nucleic acid quantification. BCR-4 relative expression was measured by RT-qPCR. The primers used were ApBCR-4F ([…]; SEQ ID NO: 107) and ApBCR-4R ([…]; SEQ ID NO: 108). The internal reference gene primers were for Actin (housekeeping gene). The forward sequence was […]; SEQ ID NO: 109 and the reverse sequence was […]; SEQ ID NO: 110. RT-qPCR was performed using a qPCR amplification ramp of 1.6 degrees C./s and the following conditions: 1) 48° C. for 30 min, 2) 95° C. for 10 minutes, 3) 95° C. for 15 seconds, 4) 60° C. for 1 minute, 5) repeat steps 3-4 40×, 6) 95° C. for 15 seconds, 7) 60° C. for 1 minute, 8) ramp change to 0.15 degrees C./s, 9) 95° C. for 1 second. RT-qPCR data was analyzed using analytic (Thermo Fisher Scientific, QuantStudio Design and Analysis) software.\nAt 7 post-treatment, RNA was extracted from live aphids and RT-pPCR was done as described above (see Microinjection Delivery Experimental Design) to quantify expression of BCR-4."}, "Buchnera": {"system": "Buchnera", "test": "BCR-4 PNA leaf perfusion: Buchnera/aphid copies by qPCR", "format": "in vivo", "settings": "for effect on Buchnera titers: vs water", "method": "After 5 and 6 days of treatment, DNA was extracted from dead aphids from each treatment group. Briefly, the aphid body surface was sterilized by dipping the aphid into a 6% bleach solution for approximately 5 seconds. Aphids were then rinsed in sterile water and DNA was extracted from each individual aphid using a DNA extraction kit (Qiagen, DNeasy kit) according to manufacturer's instructions. DNA concentration was measured using a nanodrop nucleic acid quantification, and Buchnera and aphid DNA copy numbers were measured by qPCR. The primers used for Buchnera were Buch_groES_18F ([…]; SEQ ID NO: 101) and Buch_groES_98R ([…]; SEQ ID NO: 102) (Chong and Moran, 2016 PNAS). The primers used for aphid were ApEF1a 107F ([…]; SEQ ID NO: 103) and ApEF1a 246R ([…]; SEQ ID NO: 104) (Chong and Moran, 2016 PNAS). qPCR was performed using a qPCR amplification ramp of 1.6 degrees C./s and the following conditions: 1) 95° C. for 10 minutes, 2) 95° C. for 15 seconds, 3) 55° C. for 30 seconds, 4) repeat steps 2-3 40×, 5) 95° C. for 15 seconds, 6) 55° C. for 1 minute, 7) ramp change to 0.15 degrees C./s, 8) 95° C. for 1 second. qPCR data was analyzed using analytic (Thermo Fisher Scientific, QuantStudio Design and Analysis) software."}, "BCR-4 [4]": {"system": "BCR-4", "test": "BCR-4 PNA microinjection: BCR-4 expression by RT-qPCR", "format": "in vivo, Acyrthosiphon pisum", "settings": "after 7 days", "method": "as §2\nAphids LSR-1 (which harbor only Buchnera), A. pisum were grown on fava bean plants (Vroma vicia faba from Johnny's Selected Seeds) in a climate-controlled incubator (16 h light/8 h dark photoperiod; 60±5% RH; 25±2° C.). […]\nAfter 7 days of treatment, RNA was extracted from the remaining aphids in each treatment group. […] RNA concentrations were measured using a nanodrop nucleic acid quantification. BCR-4 relative expression was measured by RT-qPCR. […] RT-qPCR data was analyzed using analytic (Thermo Fisher Scientific, QuantStudio Design and Analysis) software."}, "[5]": {"system": "its target bacterial strains", "settings": "cited from earlier work"}, "Rhopalosiphum maidis": {"system": "Rhopalosiphum maidis", "test": "Bcr1 dsRNA in artificial diet: aphid survival", "format": "in vivo", "settings": "0.5 to 5 μg/ml in artificial diet; paper example", "method": "dsRNA solutions are formulated with 0 (negative control), 0.5, 1, or 5 μg/ml of Bcr1 dsRNA from Example 2 in 10 mL of TE buffer with 0.5% sucrose and essential amino acids.\nas §1, with “C.), fava bean” for “C.),”\n(§3) Wells of a 96-well plate are filled with 200 μl of artificial aphid diet (Febvay et al., Canadian Journal of Zoology 66(11):2449-2453, 1988) and the plate is covered with parafilm to make a feeding sachet. […]"}, "Myzus persicae [6]": {"system": "Myzus persicae", "test": "Bcr1 dsRNA in artificial diet: aphid survival", "format": "in vivo", "settings": "0.5 to 5 μg/ml in artificial diet; paper example", "method": "dsRNA solutions are formulated with 0 (negative control), 0.5, 1, or 5 μg/mL of Bcr1 dsRNA from Example 7 in 10 mL of TE buffer with 0.5% sucrose and essential amino acids.\nas §1, with “(16 hr” for “(16 h”\nas §3"}, "[7]": {"settings": "vs water, listed as PNA to BCR-4"}}, "note": "Entries after “also recorded” stand apart in the source; their conditions may differ. {Cy3} = Cy3 dye attached by azide-DBCO click chemistry", "data": [{"molecule": "Cy3-gaatgcagctgc (antisense GAATGCAGCTGC; all peptide nucleic acid (PNA), 5' {Cy3}) [Bcr1 specific Cy3-PNA, antisense PNA against Bcr1 joined to Cy3 dye through click chemistry]", "values": [{"measurement": "survival rate of aphids vs control", "setting": "Myzus persicae [1]", "value": "decreased"}]}, {"molecule": "YGRKKRRQRRR-CGTACAATAATCTCATGG (PNA against BCR-4; UniProt P04608 47-57, looked up, fragment) [BCR-4 PNA, peptide nucleic acid (PNA) to BCR-4 fused to a cell penetrating peptide (Tat)]", "values": [{"measurement": "offspring produced per adult", "setting": "Aphids LSR-1, A. pisum; at 3 and 7 days post-treatment", "value": 4, "unit": "offspring/adult"}, {"measurement": "effect on aphid fecundity", "setting": "Aphids LSR-1, A. pisum; vs water", "value": "slight decrease in aphid fecundity"}, {"measurement": "effect on aphid fecundity", "setting": "Aphids LSR-1, A. pisum; [7]", "value": "decreased fecundity"}, {"measurement": "effect on aphid survival", "setting": "Aphids LSR-1, A. pisum; [7]", "value": "slight decrease in survival; also recorded: decrease in insect survival"}, {"measurement": "aphids in the 3rd instar stage", "setting": "[2]; leaf perfusion 1 uM, day 2 post-treatment, first and second instar aphids", "value": 8, "unit": "%"}, {"measurement": "aphids alive", "setting": "[2]; leaf perfusion 1 uM, day 7", "value": 30, "unit": "%"}, {"measurement": "effect on aphid development", "setting": "[2]", "value": "delayed aphid development"}, {"measurement": "effect on aphid mortality", "setting": "[2]", "value": "increased aphid death"}, {"measurement": "effect on aphid development", "setting": "[2]; listed as PNA to BCR-4", "value": "slowed aphid development"}, {"measurement": "effect on aphid mortality", "setting": "[2]; listed as PNA to BCR-4", "value": "increased aphid mortality"}, {"measurement": "effect on BCR-4 expression", "setting": "BCR-4 [3]", "value": "reduction of BCR-4 expression"}, {"measurement": "effect on BCR-4 expression", "setting": "BCR-4 [3]; listed as PNA to BCR-4", "value": "knocked down BCR-4 expression"}, {"measurement": "median transcript levels of BCR-4, fold lower than water", "setting": "BCR-4 [3]; living aphids after 7 days", "value": "approximately 3 fold"}, {"measurement": "mean ratio Buchnera/aphid copies", "setting": "Buchnera; dead aphids collected 5 and 6 days post-treatment", "value": "approximately 57"}, {"measurement": "effect on Buchnera titers", "setting": "Buchnera", "value": "increased Buchnera titers"}, {"measurement": "effect on Buchnera titers", "setting": "Buchnera; listed as PNA to BCR-4", "value": "misbalance in Buchnera titers"}, {"measurement": "expression of BCR-4, water-injected fold higher than BCR-4 PNA-injected", "setting": "BCR-4 [4]; microinjection 20 nl of 321 ng/μl, 4th and 5th instar", "value": "approximately 2 fold"}, {"measurement": "effect on BCR-4 expression", "setting": "BCR-4 [4]; microinjection, vs water", "value": "knockdown of BCR-4; also recorded: reduced BCR-4 expression"}]}, {"molecule": "nisin", "values": [{"measurement": "concentration showing antimicrobial activity", "setting": "[5]", "value": "single-digit nanomolar concentration"}]}, {"molecule": "Bcr1 dsRNA: dsRNA hairpin targeting Bcr1 gene (ACYPI32128), SEQ ID NO: 93 (nucleic acid, listed as Acyrthosiphon pisum) AUGAAACUGCUGCAUGGCUUUCUGAUUAUUAUGCUGACCAUGCAUCUGAGCAUUCAGUAUGCGUAUGGCGGCCCGUUUCUGACCAAAUAUCUGUGCGAUCGCGUGUGCCAUAAACUGUGCGGCGAUGAAUUUGUGUGCAGCUGCAUUCAGUAUAAAAGCCUGAAAGGCCUGUGGUUUCCGCAUUGCCCGACCGGCAAAGCGAGCGUGGUGCUGCAUAACUUUCUGACCAGCCCGUUUUUUUUUUCGGGCUGGUCAGAAAGUUAUGCAGCACCACGCUCGCUUUGCCGGUCGGGCAAUGCGGAAACCACAGGCCUUUCAGGCUUUUAUACUGAAUGCAGCUGCACACAAAUUCAUCGCCGCACAGUUUAUGGCACACGCGAUCGCACAGAUAUUUGGUCAGAAACGGGCCGCCAUACGCAUACUGAAUGCUCAGAUGCAUGGUCAGCAUAAUAAUCAGAAAGCCAUGCAGCAGUUUCAU", "values": [{"measurement": "survival rate of aphids vs control", "setting": "Rhopalosiphum maidis", "value": "decreased"}, {"measurement": "survival rate of aphids vs control", "setting": "Myzus persicae [6]", "value": "decreased"}]}]}
